Data taken from patent publication US12077503B2, “Substituted cyclic amides and their use as herbicides” (FMC CORPORATION, priority 2015, dated 2024).

Tests used:
Type in all cases: in vivo
[1] = tested on: redroot pigweed (Amaranthus retroflexus); assay: Test G Post-Emergence Protocol; details: Amaranthus retroflexus, post-emergence, 312 h; for pest or weed control at 15.625 g/ha: 15.625 g ai/ha, evaluated after 13 days (100=total damage to plant; 0=no damage to plant), read-out: Pigweed, Redroot damage rating; for pest or weed control at 62.5 g/ha: 62.5 g ai/ha, read-out: Pigweed, Redroot damage rating (100=total damage to plant; 0=no damage to plant); for pest or weed control at 62.5 g/ha / pest or weed control at 250 g/ha: evaluated after 13 days; for pest or weed control at 250 g/ha: 250 g ai/ha, read-out: damage to plant, Pigweed, Redroot (100=total damage to plant; 0=no damage to plant)
How it was run: (§1)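 Post-emergence herbicidal damage, scored visually 0–100 at 13 days. Application at 15.625, 62.5 or 250 g/ha onto 8-day-old plants grown under glasshouse control.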

corn (Zea mays) [2] = assay: Test G Post-Emergence Protocol; details: Zea mays, post-emergence, 312 h; for plant injury at 15.625 g/ha: 15.625 g ai/ha, evaluated after 13 days (100=total damage to plant; 0=no damage to plant), read-out: Corn damage rating; for plant injury at 62.5 g/ha: 62.5 g ai/ha, read-out: Corn damage rating (100=total damage to plant; 0=no damage to plant); for plant injury at 62.5 g/ha / plant injury at 250 g/ha: evaluated after 13 days; for plant injury at 250 g/ha: 250 g ai/ha, read-out: damage to plant, Corn (100=total damage to plant; 0=no damage to plant)
How it was run: as §1

[3] = tested on: giant foxtail (Setaria faberi); assay: Test G Post-Emergence Protocol; details: Setaria faberi, post-emergence, 312 h; for pest or weed control at 15.625 g/ha: 15.625 g ai/ha, evaluated after 13 days (100=total damage to plant; 0=no damage to plant), read-out: Foxtail, Giant damage rating; for pest or weed control at 62.5 g/ha: 62.5 g ai/ha, read-out: Foxtail, Giant damage rating (100=total damage to plant; 0=no damage to plant); for pest or weed control at 62.5 g/ha / pest or weed control at 250 g/ha: evaluated after 13 days; for pest or weed control at 250 g/ha: 250 g ai/ha, read-out: damage to plant, Foxtail, Giant (100=total damage to plant; 0=no damage to plant)
How it was run: as §1

[4] = tested on: ivy-leaved morning glory (Ipomoea hederacea); assay: Test G Post-Emergence Protocol; details: Ipomoea, post-emergence, 312 h; for pest or weed control at 15.625 g/ha: 15.625 g ai/ha, evaluated after 13 days (100=total damage to plant; 0=no damage to plant), read-out: Morningglory, Ivy-leaved damage rating; for pest or weed control at 62.5 g/ha: 62.5 g ai/ha, read-out: Morningglory, Ivy-leaved damage rating (100=total damage to plant; 0=no damage to plant); for pest or weed control at 62.5 g/ha / pest or weed control at 250 g/ha: evaluated after 13 days; for pest or weed control at 250 g/ha: 250 g ai/ha, read-out: damage to plant, Morningglory, Ivy-leaved (100=total damage to plant; 0=no damage to plant)
How it was run: as §1

[5] = tested on: velvetleaf (Abutilon theophrasti); assay: Test G Post-Emergence Protocol; details: Abutilon theophrasti, post-emergence, 312 h; for pest or weed control at 15.625 g/ha: 15.625 g ai/ha, evaluated after 13 days (100=total damage to plant; 0=no damage to plant), read-out: Velvetleaf damage rating; for pest or weed control at 62.5 g/ha: 62.5 g ai/ha, read-out: Velvetleaf damage rating (100=total damage to plant; 0=no damage to plant); for pest or weed control at 62.5 g/ha / pest or weed control at 250 g/ha: evaluated after 13 days; for pest or weed control at 250 g/ha: 250 g ai/ha, read-out: damage to plant, Velvetleaf (100=total damage to plant; 0=no damage to plant)
How it was run: as §1

[6] = tested on: barnyardgrass (Echinochloa crus-galli); assay: Test G Post-Emergence Protocol; details: Echinochloa crus-galli, post-emergence, 312 h; for pest or weed control at 15.625 g/ha: 15.625 g ai/ha, evaluated after 13 days (100=total damage to plant; 0=no damage to plant), read-out: Barnyardgrass damage rating; for pest or weed control at 62.5 g/ha: 62.5 g ai/ha, read-out: Barnyardgrass damage rating (100=total damage to plant; 0=no damage to plant); for pest or weed control at 62.5 g/ha / pest or weed control at 250 g/ha: evaluated after 13 days; for pest or weed control at 250 g/ha: 250 g ai/ha, read-out: damage to plant, Barnyardgrass (100=total damage to plant; 0=no damage to plant)
How it was run: as §1

[7] = tested on: redroot pigweed (Amaranthus retroflexus); assay: Test G Pre-Emergence Protocol; details: Amaranthus retroflexus, pre-emergence, 312 h, evaluated after 13 days; for pest or weed control at 15.625 g/ha: 15.625 g ai/ha; for pest or weed control at 15.625 g/ha / pest or weed control at 250 g/ha: read-out: Pigweed, Redroot damage rating (100=total damage to plant; 0=no damage to plant); for pest or weed control at 62.5 g/ha: 62.5 g ai/ha, 100=total damage to plant, 0=no damage to plant, read-out: plant damage rating, Pigweed, Redroot; for pest or weed control at 250 g/ha: 250 g ai/ha
How it was run: (§2)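 Seeds were sown in standard soil and kept one day in a glasshouse (24/16° C day/night, 14 h light, 65% humidity), then sprayed with compound in acetone/water (50:50) containing 0.5% Tween 20 at 15.625, 62.5 or 250 g/ha. Damage was scored after 13 days (0 = none, 100 = total).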

corn (Zea mays) [8] = assay: Test G Pre-Emergence Protocol; details: Zea mays, pre-emergence, 312 h, evaluated after 13 days; for plant injury at 15.625 g/ha: 15.625 g ai/ha; for plant injury at 15.625 g/ha / plant injury at 250 g/ha: read-out: Corn damage rating (100=total damage to plant; 0=no damage to plant); for plant injury at 62.5 g/ha: 62.5 g ai/ha, 100=total damage to plant, 0=no damage to plant, read-out: plant damage rating, Corn; for plant injury at 250 g/ha: 250 g ai/ha
How it was run: as §2

[9] = tested on: giant foxtail (Setaria faberi); assay: Test G Pre-Emergence Protocol; details: Setaria faberi, pre-emergence, 312 h, evaluated after 13 days; for pest or weed control at 15.625 g/ha: 15.625 g ai/ha; for pest or weed control at 15.625 g/ha / pest or weed control at 250 g/ha: read-out: Foxtail, Giant damage rating (100=total damage to plant; 0=no damage to plant); for pest or weed control at 62.5 g/ha: 62.5 g ai/ha, 100=total damage to plant, 0=no damage to plant, read-out: plant damage rating, Foxtail, Giant; for pest or weed control at 250 g/ha: 250 g ai/ha
How it was run: as §2

[10] = tested on: ivy-leaved morning glory (Ipomoea hederacea); assay: Test G Pre-Emergence Protocol; details: Ipomoea, pre-emergence, 312 h, evaluated after 13 days; for pest or weed control at 15.625 g/ha: 15.625 g ai/ha, read-out: Morning-glory, Ivy-leaved damage rating (100=total damage to plant; 0=no damage to plant); for pest or weed control at 62.5 g/ha: 62.5 g ai/ha, 100=total damage to plant, 0=no damage to plant, read-out: plant damage rating, Morningglory, Ivy-leaved; for pest or weed control at 250 g/ha: 250 g ai/ha, read-out: Morningglory, Ivy-leaved damage rating (100=total damage to plant; 0=no damage to plant)
How it was run: as §2

[11] = tested on: velvetleaf (Abutilon theophrasti); assay: Test G Pre-Emergence Protocol; details: Abutilon theophrasti, pre-emergence, 312 h, evaluated after 13 days; for pest or weed control at 15.625 g/ha: 15.625 g ai/ha; for pest or weed control at 15.625 g/ha / pest or weed control at 250 g/ha: read-out: Velvetleaf damage rating (100=total damage to plant; 0=no damage to plant); for pest or weed control at 62.5 g/ha: 62.5 g ai/ha, 100=total damage to plant, 0=no damage to plant, read-out: plant damage rating, Velvetleaf; for pest or weed control at 250 g/ha: 250 g ai/ha
How it was run: as §2

[12] = tested on: barnyardgrass (Echinochloa crus-galli); assay: Test G Pre-Emergence Protocol; details: Echinochloa crus-galli, pre-emergence, 312 h, evaluated after 13 days; for pest or weed control at 15.625 g/ha: 15.625 g ai/ha, read-out: Barnyard grass damage rating (100=total damage to plant; 0=no damage to plant); for pest or weed control at 62.5 g/ha: 62.5 g ai/ha, 100=total damage to plant, 0=no damage to plant, read-out: plant damage rating, Barnyardgrass; for pest or weed control at 250 g/ha: 250 g ai/ha, read-out: Barnyardgrass damage rating (100=total damage to plant; 0=no damage to plant)
How it was run: as §2

Row | Structure (SMILES) | pest or weed control at 15.625 g/ha [1] | pest or weed control at 62.5 g/ha [1] | pest or weed control at 250 g/ha [1] | plant injury at 15.625 g/ha (corn (Zea mays) [2]) | plant injury at 62.5 g/ha (corn (Zea mays) [2]) | plant injury at 250 g/ha (corn (Zea mays) [2]) | pest or weed control at 15.625 g/ha [3] | pest or weed control at 62.5 g/ha [3] | pest or weed control at 250 g/ha [3] | pest or weed control at 15.625 g/ha [4] | pest or weed control at 62.5 g/ha [4] | pest or weed control at 250 g/ha [4] | pest or weed control at 15.625 g/ha [5] | pest or weed control at 62.5 g/ha [5] | pest or weed control at 250 g/ha [5] | pest or weed control at 15.625 g/ha [6] | pest or weed control at 62.5 g/ha [6] | pest or weed control at 250 g/ha [6] | pest or weed control at 15.625 g/ha [7] | pest or weed control at 62.5 g/ha [7] | other results
1 | Cc1ccc(NC(=O)[C@@H]2C(=O)N(C)C[C@H]2c2ccc(C(F)(F)F)cc2)c(Cl)c1 (racemic) [Compound 1590] | 0% | 0% | 0% | 0% | 0% | 0% | 0% | 70% | 80% | 0% | 20% | 30% | 0% | 0% | 0% | 0% | 0% | 30% | 0% | 0% | pest or weed control at 250 g/ha [7]: 0%; plant injury at 15.625 g/ha (corn (Zea mays) [8]): 0%; plant injury at 62.5 g/ha (corn (Zea mays) [8]): 0%; plant injury at 250 g/ha (corn (Zea mays) [8]): 0%; pest or weed control at 15.625 g/ha [9]: 0%; pest or weed control at 62.5 g/ha [9]: 50%; pest or weed control at 250 g/ha [9]: 80%; pest or weed control at 15.625 g/ha [10]: 0%; pest or weed control at 62.5 g/ha [10]: 0%; pest or weed control at 250 g/ha [10]: 0%; pest or weed control at 15.625 g/ha [11]: 0%; pest or weed control at 62.5 g/ha [11]: 0%; pest or weed control at 250 g/ha [11]: 0%; pest or weed control at 15.625 g/ha [12]: 0%; pest or weed control at 62.5 g/ha [12]: 0%; pest or weed control at 250 g/ha [12]: 60%
2 | CN1C[C@@H](c2ccc(C(F)(F)F)cc2)[C@H](C(=O)Nc2cccc(C(F)(F)F)c2[N+](=O)[O-])C1=O (racemic) [Compound 1594] | 0% | 0% | 0% | 0% | 0% | 0% | 0% | 20% | 20% | 0% | 0% | 0% | 0% | 0% | 0% | 0% | 20% | 20% | 0% | 0% | pest or weed control at 250 g/ha [7]: 0%; plant injury at 15.625 g/ha (corn (Zea mays) [8]): 0%; plant injury at 62.5 g/ha (corn (Zea mays) [8]): 10%; plant injury at 250 g/ha (corn (Zea mays) [8]): 10%; pest or weed control at 15.625 g/ha [9]: 0%; pest or weed control at 62.5 g/ha [9]: 40%; pest or weed control at 250 g/ha [9]: 30%; pest or weed control at 15.625 g/ha [10]: 0%; pest or weed control at 62.5 g/ha [10]: 0%; pest or weed control at 250 g/ha [10]: 0%; pest or weed control at 15.625 g/ha [11]: 0%; pest or weed control at 62.5 g/ha [11]: 0%; pest or weed control at 250 g/ha [11]: 0%; pest or weed control at 15.625 g/ha [12]: 0%; pest or weed control at 62.5 g/ha [12]: 20%; pest or weed control at 250 g/ha [12]: 20%
